Experimental data from ChEMBL document CHEMBL1149774, “Synthesis of N-(5,7-diamino-3-phenyl-quinoxalin-2-yl)-3,4,5-substituted anilines and N-[4[(5,7-diamino-3-phenylquinoxalin-2-yl)amino]benzoyl]-l-glutamic acid diethyl ester: evaluation of in vitro anti-cancer and anti-folate activities” (Eur J Med Chem, 2008).

Key:
Format in all cases: functional
HOP-62 = assay: Growth inhibition of human HOP62 cells after 48 hrs by SRB staining method; settings: HOP-62, 48 h
TK-10 = assay: Growth inhibition of human TK10 cells after 48 hrs by SRB staining method; settings: TK-10, 48 h
NCI-H460 = assay: Growth inhibition of human NCI-H460 cells after 48 hrs by SRB staining method; settings: NCI-H460, 48 h
NCI-H522 = assay: Growth inhibition of human NCI-H522 cells after 48 hrs by SRB staining method; settings: NCI-H522, 48 h
EKVX = assay: Growth inhibition of human EKVX cells after 48 hrs by SRB staining method
SR = assay: Growth inhibition of human SR cells after 48 hrs by SRB staining method
OVCAR-5 = assay: Growth inhibition of human OVCAR5 cells after 48 hrs by SRB staining method; settings: OVCAR-5, 48 h
HCT-116 = assay: Growth inhibition of human HCT116 cells after 48 hrs by SRB staining method; settings: HCT-116, 48 h
SW-620 = assay: Growth inhibition of human SW620 cells after 48 hrs by SRB staining method; settings: SW-620, 48 h
M14 = assay: Growth inhibition of human M14 cells after 48 hrs by SRB staining method; settings: M14, 48 h
U-251 = assay: Growth inhibition of human U251 cells after 48 hrs by SRB staining method; settings: U-251, 48 h
A498 = assay: Growth inhibition of human A498 cells after 48 hrs by SRB staining method; settings: A498, 48 h
SK-OV-3 = assay: Growth inhibition of human SKOV3 cells after 48 hrs by SRB staining method; settings: SK-OV-3, 48 h
HCT-15 = assay: Growth inhibition of human HCT15 cells after 48 hrs by SRB staining method; settings: HCT-15, 48 h
SF-295 = assay: Growth inhibition of human SF295 cells after 48 hrs by SRB staining method; settings: SF-295, 48 h
NCI-H322M = assay: Growth inhibition of human NCI-H322M cells after 48 hrs by SRB staining method
MCF7 = assay: Growth inhibition of human MCF7 cells after 48 hrs by SRB staining method; settings: MCF7, 48 h
SK-MEL-28 = assay: Growth inhibition of human SK-MEL-28 cells after 48 hrs by SRB staining method; settings: SK-MEL-28, 48 h
HL-60 = assay: Growth inhibition of human HL60 cells after 48 hrs by SRB staining method; settings: HL-60, 48 h
SK-MEL-5 = assay: Growth inhibition of human SK-MEL-5 cells after 48 hrs by SRB staining method; settings: SK-MEL-5, 48 h
MDA-MB-435 = assay: Growth inhibition of human MDA-MB-435 cells after 48 hrs by SRB staining method; settings: MDA-MB-435, 48 h
RXF 393 = assay: Growth inhibition of human RXF393 cells after 48 hrs by SRB staining method; settings: RXF 393, 48 h
OVCAR-3 = assay: Growth inhibition of human OVCAR-3 cells after 48 hrs by SRB staining method; settings: OVCAR-3, 48 h
NCI-H226 = assay: Growth inhibition of human NCI-H226 cells after 48 hrs by SRB staining method; settings: NCI-H226, 48 h
UO-31 = assay: Growth inhibition of human UO31 cells after 48 hrs by SRB staining method; settings: UO-31, 48 h
UACC-257 = assay: Growth inhibition of human UACC257 cells after 48 hrs by SRB staining method; settings: UACC-257, 48 h
CAKI-1 = assay: Growth inhibition of human CAKI1 cells after 48 hrs by SRB staining method; settings: CAKI-1, 48 h
786-0 = assay: Growth inhibition of human 786-0 cells after 48 hrs by SRB staining method; settings: 786-0, 48 h
DU-145 = assay: Growth inhibition of human DU145 cells after 48 hrs by SRB staining method; settings: DU-145, 48 h
COLO 205 = assay: Growth inhibition of human COLO205 cells after 48 hrs by SRB staining method; settings: COLO 205, 48 h
OVCAR-4 = assay: Growth inhibition of human OVCAR4 cells after 48 hrs by SRB staining method; settings: OVCAR-4, 48 h
[1] = read-out: pLC50 (the source's name) (converted)

Molecule `Nc1cc(N)c2nc(-c3ccccc3)c(Nc3ccc(F)cc3)nc2c1` has a GI50 (HOP-62) of 38 µM, a TGI (HOP-62; read-out: pTGI (converted)) of over 100 µM and a GI50 (TK-10) of 17.4 µM. It also gave a CC50 (TK-10; [1]) of 74.1 µM, a TGI (TK-10; read-out: pTGI (converted)) of 35.5 µM and a GI50 (NCI-H460) of 26.3 µM. It also gave a TGI (NCI-H460; read-out: pTGI (converted)) of over 100 µM, a GI50 (NCI-H522) of over 100 µM and a TGI (NCI-H522; read-out: pTGI (converted)) of over 100 µM. It also gave a GI50 (EKVX) of 12 µM, a CC50 (EKVX; [1]) of 75.9 µM and a TGI (EKVX; read-out: pTGI (converted)) of 30.2 µM. For the same molecule, the GI50 (SR) was 5.37 µM, the GI50 (OVCAR-5) was 38 µM and the TGI (OVCAR-5; read-out: pTGI (converted)) was over 100 µM. The GI50 (HCT-116) was 20 µM, the TGI (HCT-116; read-out: pTGI (converted)) was over 100 µM and the GI50 (SW-620) was 13.5 µM. The CC50 (SW-620; [1]) was over 100 µM, the TGI (SW-620; read-out: pTGI (converted)) was 38.9 µM and the GI50 (M14) was 16.2 µM. For the same molecule, the TGI (M14; read-out: pTGI (converted)) was 43.7 µM, the GI50 (U-251) was 5.62 µM and the TGI (U-251; read-out: pTGI (converted)) was 20 µM. It also gave a GI50 (A498) of 17.4 µM, a CC50 (A498; [1]) of 66.1 µM and a TGI (A498; read-out: pTGI (converted)) of 20 µM. For the same molecule, the GI50 (SK-OV-3) was 40.7 µM, the CC50 (SK-OV-3; [1]) was over 100 µM and the TGI (SK-OV-3; read-out: pTGI (converted)) was over 100 µM. The GI50 (HCT-15) was 12.6 µM, the TGI (HCT-15; read-out: pTGI (converted)) was 38 µM and the GI50 (SF-295) was 14.5 µM. It also gave a TGI (SF-295; read-out: pTGI (converted)) of 32.4 µM, a GI50 (NCI-H322M) of 17 µM and a TGI (NCI-H322M; read-out: pTGI (converted)) of 35.5 µM. The GI50 (MCF7) was 12.6 µM, the CC50 (MCF7; [1]) was over 100 µM and the TGI (MCF7; read-out: pTGI (converted)) was over 100 µM. For the same molecule, the GI50 (SK-MEL-28) was 20.4 µM, the CC50 (SK-MEL-28; [1]) was 75.9 µM and the TGI (SK-MEL-28; read-out: pTGI (converted)) was 38.9 µM. For the same molecule, the GI50 (HL-60) was 11.2 µM, the CC50 (HL-60; [1]) was over 100 µM and the TGI (HL-60; read-out: pTGI (converted)) was over 100 µM. It also gave a GI50 (SK-MEL-5) of 14.5 µM, a TGI (SK-MEL-5; read-out: pTGI (converted)) of 33.1 µM and a GI50 (MDA-MB-435) of 7.41 µM. It also gave a CC50 (MDA-MB-435; [1]) of 50.1 µM, a TGI (MDA-MB-435; read-out: pTGI (converted)) of 20.9 µM and a GI50 (RXF 393) of 8.71 µM. For the same molecule, the CC50 (RXF 393; [1]) was 85.1 µM, the TGI (RXF 393; read-out: pTGI (converted)) was 28.8 µM and the GI50 (OVCAR-3) was 4.68 µM. The TGI (OVCAR-3; read-out: pTGI (converted)) was 17.8 µM, the GI50 (NCI-H226) was 17.8 µM and the TGI (NCI-H226; read-out: pTGI (converted)) was 47.9 µM. The GI50 (UO-31) was 17 µM, the CC50 (UO-31; [1]) was over 100 µM and the TGI (UO-31; read-out: pTGI (converted)) was 61.7 µM. For the same molecule, the GI50 (UACC-257) was 15.1 µM, the TGI (UACC-257; read-out: pTGI (converted)) was 28.8 µM and the GI50 (CAKI-1) was 19.1 µM. The CC50 (CAKI-1; [1]) was 85.1 µM, the TGI (CAKI-1; read-out: pTGI (converted)) was 40.7 µM and the GI50 (786-0) was 17.4 µM. For the same molecule, the CC50 (786-0; [1]) was over 100 µM, the TGI (786-0; read-out: pTGI (converted)) was 53.7 µM and the GI50 (DU-145) was 12 µM. For the same molecule, the CC50 (DU-145; [1]) was 66.1 µM, the TGI (DU-145; read-out: pTGI (converted)) was 28.2 µM and the GI50 (COLO 205) was 20.4 µM. It also gave a TGI (COLO 205; read-out: pTGI (converted)) of 56.2 µM, a GI50 (OVCAR-4) of 13.5 µM and a TGI (OVCAR-4; read-out: pTGI (converted)) of 49 µM.
